pIC50: −log10 of the molar value.
Experiments:
[1] = test system: A498; assay: NCI 60 cell line screen, Renal; format: cell-based, human; conditions: one dose 10 µM
[2] = test system: HCT-116; assay: NCI 60 cell line screen, Colon; format: cell-based, human; conditions: one dose 10 µM
[3] = test system: MDA-MB-435; assay: NCI 60 cell line screen, Melanoma; format: cell-based, human; conditions: one dose 10 µM
[4] = test system: SNB-19; assay: NCI 60 cell line screen, CNS; format: cell-based, human; conditions: one dose 10 µM
[5] = test system: UACC-62; assay: NCI 60 cell line screen, Melanoma; format: cell-based, human; conditions: one dose 10 µM
[6] = test system: NCI-H522; assay: NCI 60 cell line screen, NSCLung; format: cell-based, human; conditions: one dose 10 µM
[7] = test system: MCF-7 human breast cancer cells; assay: AlamarBlue cell viability assay; format: cell-based; conditions: Homo sapiens, MCF7, 72 h, MCF-7, 72 h
Description: The antiproliferative potential of the synthesised 3-fluoro β-lactams 26–35 and 3,3-difluoro β-lactams 36–45 was evaluated in MCF-7 human breast cancer cells using the AlamarBlue assay, with CA-4 as reference compound (Figure 3). […] The results for the preliminary in vitro antiproliferative screen for 3-fluoro β-lactam compounds (26–29), which contain different substituents at the para position in the B ring, are presented in Figure 3A.
Cells were seeded at a density of 5 × 10^3 cells/well (MCF-7 and MDA-MB-231) and 1 × 10^4 cells/well (HEK-293T) in 96-well plates (200 μL per well). After 24 h, cells were then treated with medium alone, with vehicle (1% ethanol (v/v)) or with CA-4 or β-lactam compounds at 1 μM and 10 μM concentrations. […] Cell proliferation for MCF-7 cells was analysed with the AlamarBlue assay (Invitrogen Corp.) as previously described by us. After 72 h, AlamarBlue (10% (v/v)) was added to each well, and plates were incubated for 3–5 h at 37 °C in the dark. Fluorescence results were obtained with a 96-well fluorimeter with excitation at 530 nm and emission at 590 nm with results recorded as percentage viability relative to vehicle control (100%). Dose–response curves were obtained and IC50 values (concentration of drug resulting in 50% reduction in cell survival) were calculated using Prism (GraphPad Software, Inc., La Jolla, CA, USA).
Figure 3 Preliminary cell viability data for 3-fluoro and 3,3-difluoro β-lactam compounds. (A) 3-Fluoro β-lactam compounds containing different para-substituent ring B 26–29; 3-fluoro β-lactam compounds containing different meta-substituent ring B 30, 32–35; (B) 3-difluoro β-lactam compounds containing different para-substituent ring B 36–39; 3-difluoro β-lactam compounds containing different meta-substituent ring B 40, 42–45 in MCF-7 breast cancer cells. Cell proliferation of MCF-7 cells was determined with an AlamarBlue assay (seeding density […] for 96-well plates). Compound concentrations of either 10 μM or 1 μM for 72 h were used to treat the cells with control wells containing vehicle ethanol (1% v/v) and CA-4 (10 μM and 1 μM). The mean value for three experiments is shown with the ± S.E.M. for three independent experiments.

[8] = test system: HS 578T; assay: NCI 60 cell line screen, Breast; format: cell-based, human; conditions: one dose 10 µM
[9] = test system: A549/A TCC; assay: NCI 60 cell line screen, NSCLung; format: cell-based, human; conditions: one dose 10 µM
[10] = test system: OVCAR-5; assay: NCI 60 cell line screen, Ovarian; format: cell-based, human; conditions: one dose 10 µM
[11] = test system: ACHN; assay: NCI 60 cell line screen, Renal; format: cell-based, human; conditions: one dose 10 µM
[12] = test system: RPMI-8226; assay: NCI 60 cell line screen, Leukaemia; format: cell-based, human; conditions: one dose 10 µM
[13] = test system: MDA-MB-468; assay: NCI 60 cell line screen, Breast; format: cell-based, human; conditions: one dose 10 µM
[14] = test system: 786–0; assay: NCI 60 cell line screen, Renal; format: cell-based, human; conditions: 786-0, one dose 10 µM
[15] = test system: MOLT-4; assay: NCI 60 cell line screen, Leukaemia; format: cell-based, human; conditions: one dose 10 µM
[16] = test system: TK-10; assay: NCI 60 cell line screen, Renal; format: cell-based, human; conditions: one dose 10 µM
[17] = test system: IGROV1; assay: NCI 60 cell line screen, Ovarian; format: cell-based, human
[18] = test system: OVCAR-8; assay: NCI 60 cell line screen, Ovarian; format: cell-based, human; conditions: one dose 10 µM
[19] = test system: MCF7; assay: NCI 60 cell line screen, Breast; format: cell-based, human; conditions: one dose 10 µM
[20] = test system: LOX IMVI; assay: NCI 60 cell line screen, Melanoma; format: cell-based, human; conditions: one dose 10 µM
[21] = test system: SW-620; assay: NCI 60 cell line screen, Colon; format: cell-based, human; conditions: one dose 10 µM
[22] = test system: NCI-H23; assay: NCI 60 cell line screen, NSCLung; format: cell-based, human; conditions: one dose 10 µM
[23] = test system: SNB-75; assay: NCI 60 cell line screen, CNS; format: cell-based, human; conditions: one dose 10 µM
[24] = test system: SF-295; assay: NCI 60 cell line screen, CNS; format: cell-based, human; conditions: one dose 10 µM
[25] = test system: MDA-MB-231/ATCC; assay: NCI 60 cell line screen, Breast; format: cell-based, human; conditions: one dose 10 µM

COc1ccc(C2N(c3cc(OC)c(OC)c(OC)c3)C(=O)C2(F)F)cc1F (centres unmarked) [Compound 43, 3,3-Difluoro-4-(3-fluoro-4-methoxyphenyl)-1-(3,4,5-trimethoxyphenyl)azetidin-2-one]
inhibition at 10 µM ([1]; Homo sapiens): 2.19%
Growth % [1]: 97.81%
inhibition at 10 µM ([2]; Homo sapiens): 94.2%
Growth % [2]: 5.76%
inhibition at 10 µM ([3]; Homo sapiens): 87.1%
Growth % [3]: 12.92%
inhibition at 10 µM ([4]; Homo sapiens): 47.1%
Growth % [4]: 52.93%
inhibition at 10 µM ([5]; Homo sapiens): 44.5%
Growth % [5]: 55.46%
inhibition at 10 µM ([6]; Homo sapiens): 82.5%
Growth % [6]: 17.54%
pIC50 [7]: 5.78
inhibition at 10 µM ([8]; Homo sapiens): 78.1%
Growth % [8]: 21.93%
inhibition at 10 µM ([9]; Homo sapiens): 51.4%
Growth % [9]: 48.65%
inhibition at 10 µM ([10]; Homo sapiens): 21.3%
Growth % [10]: 78.72%
inhibition at 10 µM ([11]; Homo sapiens): 39.2%
Growth % [11]: 60.82%
inhibition at 10 µM ([12]; Homo sapiens): 79.2%
Growth % [12]: 20.78%
inhibition at 10 µM ([13]; Homo sapiens): 55.5%
Growth % [13]: 44.48%
Growth % [14]: 75.35%
inhibition at 10 µM ([14]; Homo sapiens): 24.6%
inhibition at 10 µM ([15]; Homo sapiens): 81.3%
Growth % [15]: 18.67%
inhibition at 10 µM ([16]; Homo sapiens): -5.64%
Growth % [16]: 105.64%
inhibition at 10 µM ([17]; Homo sapiens, IGROV-1, one dose 10 µM): 55.8%
Growth % ([17]; one dose 10 µM): 44.2%
inhibition at 10 µM ([18]; Homo sapiens): 55.9%
Growth % [18]: 44.07%
inhibition at 10 µM ([19]; Homo sapiens, MCF7, MCF7): 84.9%
Growth % ([19]; MCF7): 15.06%
Inhibition % ([19]; MCF7): 84.9%
inhibition at 10 µM ([20]; Homo sapiens): 72.9%
Growth % [20]: 27.06%
inhibition at 10 µM ([21]; Homo sapiens): 78.8%
Growth % [21]: 21.22%
inhibition at 10 µM ([22]; Homo sapiens): 62.1%
Growth % [22]: 37.86%
inhibition at 10 µM ([23]; Homo sapiens): 35.3%
Growth % [23]: 64.74%
inhibition at 10 µM ([24]; Homo sapiens): 51.7%
Growth % [24]: 48.29%
inhibition at 10 µM ([25]; Homo sapiens): 46%
Growth % [25]: 54.02%

Reference: PMC9501633, “Synthesis, Characterisation and Mechanism of Action of Anticancer 3-Fluoroazetidin-2-ones” (Pharmaceuticals, 2022)
